Drawing on patent publication US20230357179A1, “RAF KINASE INHIBITORS AND METHODS OF USE THEREOF” (Deciphera Pharmaceuticals, LLC, priority 2021, published 2023), this text covers IC50 for 17 compounds.

One experiment addresses T1, A-Raf kinase (Homo sapiens, UniProt P10398, Y301D/Y302D).
T1 construct: purchased Sigma
Description: Biochemical assay for A-Raf.1 (coupled pyruvate kinase/lactate dehydrogenase). The following applies: read-out: ARAF.1 IC50. In short, it runs like this:
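IC50 values came from four-parameter sigmoidal fits of percent inhibition, using rates over the 4 to 5 h window of continuous A340 readings (6 h, 30° C). The coupled PK/LDH system tracked NADH oxidation during 5.55 nM A-Raf activity on 30.1 nM MEK at 1 mM ATP, buffer pH 7.5.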

The target in another experiment is T2, C-Raf kinase (Homo sapiens, UniProt P04049, Y340D/Y341D).
T2 construct: Y340D,; GST (N); purchased Sigma
T2 sequence (P04049 307-648 Y340D/Y341D): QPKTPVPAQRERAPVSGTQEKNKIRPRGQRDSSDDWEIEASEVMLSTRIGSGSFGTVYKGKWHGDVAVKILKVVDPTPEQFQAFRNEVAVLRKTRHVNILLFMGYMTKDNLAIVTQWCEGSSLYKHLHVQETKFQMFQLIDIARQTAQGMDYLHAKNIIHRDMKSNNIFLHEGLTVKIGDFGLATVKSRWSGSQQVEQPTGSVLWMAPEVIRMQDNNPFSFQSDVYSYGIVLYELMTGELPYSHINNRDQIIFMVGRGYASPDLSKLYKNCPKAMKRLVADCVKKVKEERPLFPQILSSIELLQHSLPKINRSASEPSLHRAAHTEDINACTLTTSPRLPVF
Briefly: Biochemical assay for C-Raf.1 (coupled pyruvate kinase/lactate dehydrogenase). To be noted: read-out: CRAF.1 IC50. In short, it runs like this: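 NADH depletion at 340 nm monitored continuously for 6 h at 30° C, with rates taken over 4–5 h. The coupled pyruvate kinase/lactate dehydrogenase reaction used 1 mM ATP, 30.1 nM MEK substrate and 0.43 nM kinase at pH 7.5. IC50 was fitted sigmoidally from percent inhibition of serially diluted compound.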

Another experiment has as its target T3, B-Raf (V600E) kinase (Homo sapiens, UniProt P15056, V600E).
T3 construct: B-Raf (V600E) residues 416-766 with a; GST (N); purchased SignalChem
Description: Biochemical assay for B-Raf (V600E).1 (coupled pyruvate kinase/lactate dehydrogenase). To be noted: read-out: BRAF V600E.1 IC50. The method in brief: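 IC50 came from four-parameter sigmoidal fits of percent inhibition, using reaction rates over 3-4 h. Continuous A340 reading (6 h, 30 °C) of a pyruvate kinase/lactate dehydrogenase-coupled reaction: B-Raf V600E 0.03 nM, MEK 30.1 nM, ATP 1 mM, Tris pH 7.5, 1% DMSO.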

The subject of a further experiment is H2405 cells. Briefly: H2405 cell proliferation assay (1), resazurin, 96-well. Type of experiment: cell-based. To be noted: Homo sapiens, NCI-H2405, inhibition of cell proliferation. The method in brief:
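This is a resazurin viability readout (excitation 540 nm, emission 600 nm) taken 5-6 h after adding 440 μM resazurin solution, giving IC50 values.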
Background: The colour change of resazurin is a common sign of viable cells or microbes.

T1 sequence (P10398 with tags, fused parts or gaps Y301D/Y302D): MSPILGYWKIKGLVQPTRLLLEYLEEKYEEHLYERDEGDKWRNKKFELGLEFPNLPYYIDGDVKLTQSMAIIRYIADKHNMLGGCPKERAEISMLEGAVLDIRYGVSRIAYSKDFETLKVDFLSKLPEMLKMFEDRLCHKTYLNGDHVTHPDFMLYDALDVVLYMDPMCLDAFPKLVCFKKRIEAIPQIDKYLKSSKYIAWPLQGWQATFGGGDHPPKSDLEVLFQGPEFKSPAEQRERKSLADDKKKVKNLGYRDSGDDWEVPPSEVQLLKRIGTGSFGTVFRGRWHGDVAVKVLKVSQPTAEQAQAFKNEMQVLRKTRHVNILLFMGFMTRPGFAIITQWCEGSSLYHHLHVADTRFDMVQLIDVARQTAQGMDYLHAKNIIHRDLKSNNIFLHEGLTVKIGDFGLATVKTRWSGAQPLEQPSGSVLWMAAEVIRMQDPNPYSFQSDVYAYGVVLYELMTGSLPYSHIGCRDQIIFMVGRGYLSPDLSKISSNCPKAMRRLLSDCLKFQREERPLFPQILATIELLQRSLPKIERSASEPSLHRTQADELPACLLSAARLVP
T3 sequence (P15056 416-766 V600E): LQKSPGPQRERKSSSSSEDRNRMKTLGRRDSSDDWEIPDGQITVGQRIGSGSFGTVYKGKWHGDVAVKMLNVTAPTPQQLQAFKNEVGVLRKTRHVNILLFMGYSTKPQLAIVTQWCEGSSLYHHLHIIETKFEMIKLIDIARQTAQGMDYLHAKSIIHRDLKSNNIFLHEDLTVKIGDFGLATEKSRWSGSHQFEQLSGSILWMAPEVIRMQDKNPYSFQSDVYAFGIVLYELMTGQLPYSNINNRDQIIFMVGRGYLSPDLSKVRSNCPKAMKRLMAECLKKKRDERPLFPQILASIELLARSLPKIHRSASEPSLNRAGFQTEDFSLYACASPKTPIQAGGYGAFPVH

The IC50 is the midpoint of a concentration-inhibition curve. `COC(=O)Nc1cc(-c2cnnc(-c3cc(NC(=O)N4CCC(CC(F)(F)F)C4)ccc3C)c2)ccn1` (centres unmarked) [Example 186]: the IC50 is > 1000 nM at A-Raf kinase, ≤ 100 nM at C-Raf kinase, ≤ 100 nM at B-Raf (V600E) kinase and 100 to 500 nM with H2405 cells.

For `Cc1cc(F)c(NC(=O)NCCC2(C)CC2)cc1-c1ccnc(-c2ccnc3c2CC(=O)N3)c1` [Example 79], the IC50 on A-Raf kinase was > 1000 nM; on C-Raf kinase, ≤ 100 nM; on B-Raf (V600E) kinase, ≤ 100 nM; in the experiment with H2405 cells it was 500 to 1000 nM.

`Cc1ccc(NC(=O)N2CCC3(CC3)C2)cc1-c1cncc(-c2cc(NC(=O)C3CC3)ncn2)c1` [Example 218]: the half-inhibitory concentration (IC50) is > 1000 nM at A-Raf kinase, ≤ 100 nM on C-Raf kinase, ≤ 100 nM on B-Raf (V600E) kinase and 100 to 500 nM in the experiment with H2405 cells.

On to `COC(C)(C)CCNC(=O)Nc1cnc(C)c(-c2nccc(-c3ccnc(NC(=O)C4CC4)c3)n2)c1` [Example 82], for which the 50% inhibitory concentration (IC50) on A-Raf kinase was > 1000 nM; on C-Raf kinase, ≤ 100 nM; at B-Raf (V600E) kinase it was ≤ 100 nM; in the experiment with H2405 cells it was 1000 to 10000 nM.

For `COC(=O)Nc1cc(-c2cc(-c3cc(NC(=O)N4CCC(C(F)(F)F)C4)ccc3C)cc(OCCO)n2)ccn1` (centres unmarked) [Example 222], the IC50 at A-Raf kinase is > 1000 nM; at C-Raf kinase it was ≤ 100 nM; at B-Raf (V600E) kinase it was ≤ 100 nM; with H2405 cells, 100 to 500 nM.

On to `Cc1ccc(NC(=O)N2CC[C@H](C(C)C)C2)cc1-c1cncc(-c2cc(NC(=O)C3CC3)ncn2)c1` [Example 221], for which the 50% inhibitory concentration (IC50) was 100 to 500 nM at A-Raf kinase, ≤ 100 nM on C-Raf kinase, ≤ 100 nM at B-Raf (V600E) kinase and ≤ 100 nM in the experiment with H2405 cells.

Take `Cc1cc(F)c(NC(=O)NC2CC(C)(C)C2)cc1-c1cc(OCCO)nc(-c2ccnc(NC(=O)C3CC3)c2)c1` [Example 80]: the 50% inhibitory concentration (IC50) on A-Raf kinase is > 1000 nM; on C-Raf kinase, ≤ 100 nM; at B-Raf (V600E) kinase, ≤ 100 nM; in the experiment with H2405 cells, ≤ 100 nM.

As for `Cc1ccc(NC(=O)N2CC[C@@H](C(F)(F)F)C2)cc1-c1cncc(-c2ccnc(NC(=O)C3CC3)c2)c1` [Example 196], the IC50 on A-Raf kinase was > 1000 nM; on C-Raf kinase, ≤ 100 nM; at B-Raf (V600E) kinase it was ≤ 100 nM; with H2405 cells it was 500 to 1000 nM.

`CC(=O)Nc1cc(-c2cc(-c3cc(NC(=O)NCCC4(C)CC4)c(F)cc3C)cc(OCCO)n2)ccn1` [Example 33]: the half-inhibitory concentration (IC50) on A-Raf kinase was 100 to 500 nM; on C-Raf kinase, ≤ 100 nM; on B-Raf (V600E) kinase, ≤ 100 nM; with H2405 cells, ≤ 100 nM.

`CNC(=O)c1cc(-c2cnnc(-c3cc(NC(=O)N4CC[C@H](OC)C4)ccc3C)c2)ccn1` [Example 177]: the half-maximal inhibitory concentration (IC50) was > 1000 nM at A-Raf kinase, > 1000 nM on C-Raf kinase, 100 to 500 nM on B-Raf (V600E) kinase and 1000 to 10000 nM with H2405 cells.

As for `COC(=O)Nc1cc(-c2nc(OCCO)cc(-c3cc(NC(=O)NC4CC(C)(C)C4)cnc3C)n2)ccn1` [Example 174], the 50% inhibitory concentration (IC50) on A-Raf kinase is > 1000 nM; on C-Raf kinase, ≤ 100 nM; on B-Raf (V600E) kinase it was ≤ 100 nM; with H2405 cells it was 500 to 1000 nM.

Take `COC(=O)Nc1cc(-c2cc(-c3cc(NC(=O)NCCC4(C)CC4)c(F)cc3C)cc(OCCO)n2)ccn1` [Example 77]: the IC50 on A-Raf kinase is > 1000 nM; at C-Raf kinase, ≤ 100 nM; on B-Raf (V600E) kinase it was ≤ 100 nM; in the experiment on H2405 cells, 100 to 500 nM.

Regarding `COC(=O)Nc1cc(-c2cncc(-c3cc(NC(=O)N4CCCCCC4)ccc3C)c2)ccn1` [Example 202], the 50% inhibitory concentration (IC50) is > 1000 nM at A-Raf kinase, 100 to 500 nM on C-Raf kinase, 100 to 500 nM at B-Raf (V600E) kinase and 1000 to 10000 nM with H2405 cells.

For `Cc1ncc(NC(=O)NCCC(C)(C)F)cc1-c1ccnc(-c2ccnc(NC(=O)C3CC3)c2)c1` [Example 75], the half-inhibitory concentration (IC50) is > 1000 nM at A-Raf kinase, ≤ 100 nM at C-Raf kinase, ≤ 100 nM at B-Raf (V600E) kinase and 1000 to 10000 nM in the experiment on H2405 cells.

As to `CNC(=O)c1cc(-c2cnnc(-c3cc(NC(=O)N4CCC5(CC5)C4)ccc3C)c2)ccn1` [Example 178], the IC50 on A-Raf kinase is > 1000 nM; at C-Raf kinase, 500 to 1000 nM; on B-Raf (V600E) kinase, ≤ 100 nM; with H2405 cells, 1000 to 10000 nM.

As for `Cc1ccc(NC(=O)N2CCC(F)(F)C2)cc1-c1cncc(-c2cc(NC(=O)C3CC3)ncn2)c1` [Example 209], the concentration for half-maximal inhibition (IC50) is > 1000 nM on A-Raf kinase, ≤ 100 nM on C-Raf kinase, 100 to 500 nM at B-Raf (V600E) kinase and 1000 to 10000 nM in the experiment with H2405 cells.

Regarding `Cc1ccc(NC(=O)N2CC[C@@H](C(C)C)C2)cc1-c1cncc(-c2cc(NC(=O)C3CC3)ncn2)c1` [Example 217], the half-maximal inhibitory concentration (IC50) at A-Raf kinase was 100 to 500 nM; at C-Raf kinase, ≤ 100 nM; at B-Raf (V600E) kinase, ≤ 100 nM; in the experiment on H2405 cells, 100 to 500 nM.
